The target in one test is T1, mTRPV4 (Mus musculus, UniProt Q9EPK8).
T1 construct: YFP or GFP; expressed in transfected cells; host or cells: HEK293T
The test is described as follows: Whole-cell current recordings, mTRPV4. Conditions: 100 μM HCQ; current activated by 1 μM GSK1016790A. The test is classed as cell-based, murine. As to the method:
To elucidate the specificity of HCQ inhibition on TRPV3, we conducted whole-cell current recordings on other known pruritus-related TRP channels, such as hTRPA1, mTRPV1, mTRPV4, and mTRPM8 (Fig. 3, A and F). […] Because of the relatively larger inhibition of HCQ on mTRPM8 current, we tested the concentration dependence of HCQ on mTRPM8 channels.
HEK293T cells are cultured using Dulbecco's modified Eagle's medium containing 10% fetal bovine serum and 1% penicillin-streptomycin in a cell incubator with 5% CO2 at 37 °C. Plasmids of murine TRPV1, TRPV4, TRPM8, and human TRPV3, TRPA1 are labeled with YFP or GFP as indicators for subsequent electrophysiological recordings. Complementary DNA constructs of ion channels were transiently transfected with Lipofectamine 3000 (Invitrogen). And 12 to 18 h after transient transfection, electrophysiological recordings were performed.
Patch-clamp recordings were carried out with a HEKA EPC10 amplifier controlled by PatchMaster software (HEKA; https://www.heka.com/products/products_main.html#soft_pm) ([36]). Patch pipettes were prepared from borosilicate glass and fire-polished to the resistance of 3 to 8 MΩ by P-97 puller for whole-cell recordings. For single-channel recordings, patch pipettes were fire-polished to a higher resistance of 6 to 10 MΩ. […]

In a further test the target is T2, TRPV3 Y594F mutation (Homo sapiens, UniProt Q8NET8, Y594F).
T2 construct: YFP or GFP; expressed in transfected cells; host or cells: HEK293T
T2 sequence (Q8NET8 1-790 Y594F): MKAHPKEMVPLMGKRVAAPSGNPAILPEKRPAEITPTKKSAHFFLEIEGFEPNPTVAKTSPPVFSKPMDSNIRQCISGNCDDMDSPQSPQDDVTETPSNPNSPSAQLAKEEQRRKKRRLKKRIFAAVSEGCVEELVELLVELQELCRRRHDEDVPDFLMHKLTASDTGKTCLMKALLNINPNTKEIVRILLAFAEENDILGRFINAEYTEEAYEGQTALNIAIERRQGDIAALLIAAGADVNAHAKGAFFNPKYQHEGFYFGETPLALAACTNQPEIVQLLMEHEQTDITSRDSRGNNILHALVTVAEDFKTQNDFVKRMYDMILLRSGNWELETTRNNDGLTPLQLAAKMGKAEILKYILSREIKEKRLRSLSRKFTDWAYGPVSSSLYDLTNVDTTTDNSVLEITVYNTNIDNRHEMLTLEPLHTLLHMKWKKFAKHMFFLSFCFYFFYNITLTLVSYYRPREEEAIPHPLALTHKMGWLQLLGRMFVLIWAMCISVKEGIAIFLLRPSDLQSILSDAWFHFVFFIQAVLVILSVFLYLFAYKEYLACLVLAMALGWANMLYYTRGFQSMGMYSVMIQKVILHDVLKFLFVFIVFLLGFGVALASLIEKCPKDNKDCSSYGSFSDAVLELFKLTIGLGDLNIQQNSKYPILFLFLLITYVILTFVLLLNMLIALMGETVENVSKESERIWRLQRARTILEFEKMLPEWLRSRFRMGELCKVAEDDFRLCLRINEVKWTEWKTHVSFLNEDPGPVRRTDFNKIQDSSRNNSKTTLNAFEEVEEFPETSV
The test is described as follows: Whole-cell recording of TRPV3 Y594F mutant. In kind it is cell-based. Conditions: 1 mM 2-APB, ± 80 mV. The source says:
As we mentioned above, HCQ may act as a pore blocker of TRPV3. To probe the binding configuration of HCQ to TRPV3, we carried out molecular docking using Rosetta suite (https://rosettacommons.org) ([21]) and validated the docking models with point mutations in TRPV3 (Fig. 4A). […] Furthermore, when we introduced L670A to L591A mutant, we also observed a left shift on the concentration–response curve on this double mutant as compared to L591A mutant (Fig. 4H).
Figure 4 Residues of the pore domain are critical for HCQ inhibition on TRPV3.A, left panel, docking model of HCQ to the pore domain of TRPV3 structure (6uw4). Right panels, top view and side view of the HCQ-binding pocket. B-J, representative whole-cell recording of TRPV3 and mutants in response to 1 mM 2-APB, the mixture of 1 mM 2-APB and concentration gradients of HCQ with the holding potential of ± 80 mV. K, concentration–response curves of HCQ in WT TRPV3 and mutants (n = 3–5 cells). L, quantification of the inhibitory ratio of HCQ (100 μM) on WT, L591A, and N671Q. […]
All data from whole-cell recordings were analyzed in Igor Pro (WaveMetrics). IC50 values were determined by fitting the Hill equation to concentration-response relationships. […]

Molecules are shown by their SMILES.

The values below come from publication PMC11460631, “Inhibition of transient receptor potential vanilloid 3 channels by antimalarial hydroxychloroquine alleviates TRPV3-dependent dermatitis” (The Journal of Biological Chemistry, 2024).

T1 sequence (Q9EPK8 whole entry): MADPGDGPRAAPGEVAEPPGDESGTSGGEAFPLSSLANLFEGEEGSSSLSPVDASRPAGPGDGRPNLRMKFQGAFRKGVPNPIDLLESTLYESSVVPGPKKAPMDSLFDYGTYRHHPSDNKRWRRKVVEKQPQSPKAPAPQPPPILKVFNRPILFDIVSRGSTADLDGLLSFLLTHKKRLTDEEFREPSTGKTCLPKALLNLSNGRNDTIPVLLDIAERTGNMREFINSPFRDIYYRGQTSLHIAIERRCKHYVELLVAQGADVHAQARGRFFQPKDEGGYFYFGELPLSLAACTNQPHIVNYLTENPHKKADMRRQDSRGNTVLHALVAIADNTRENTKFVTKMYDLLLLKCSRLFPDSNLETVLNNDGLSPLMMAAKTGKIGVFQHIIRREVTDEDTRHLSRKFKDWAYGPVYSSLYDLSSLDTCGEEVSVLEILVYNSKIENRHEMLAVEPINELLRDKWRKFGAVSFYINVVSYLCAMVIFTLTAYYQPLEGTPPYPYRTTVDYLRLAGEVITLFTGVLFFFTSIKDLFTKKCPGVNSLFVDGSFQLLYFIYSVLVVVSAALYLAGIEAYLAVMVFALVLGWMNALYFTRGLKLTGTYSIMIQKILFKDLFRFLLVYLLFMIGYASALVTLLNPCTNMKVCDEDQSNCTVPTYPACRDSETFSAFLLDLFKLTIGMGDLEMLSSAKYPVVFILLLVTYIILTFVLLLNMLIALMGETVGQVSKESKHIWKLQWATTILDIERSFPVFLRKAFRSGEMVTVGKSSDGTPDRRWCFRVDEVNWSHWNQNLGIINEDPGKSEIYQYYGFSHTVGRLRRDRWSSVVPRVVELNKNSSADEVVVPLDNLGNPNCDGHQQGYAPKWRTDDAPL

With `CCN(CCO)CCCC(C)Nc1ccnc2cc(Cl)ccc12` (centres unmarked) [HCQ, hydroxychloroquine], the “reduction of mTRPV4 current” value at mTRPV4 is on record as 18.37% ± 11.21%. Besides, on TRPV3 Y594F mutation, the IC50 (in general, the concentration at which inhibition is half-maximal) was 34.8 ± 1.59 µM.
